#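 Each compound was tested at five concentrations against cells in 96-well plates for 48 hours. Here, GI50 denotes the concentration required for 50% inhibition of growth.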 Active and inactive are the calls of the source. Cut-off read from the data, not from the text of the source: active = GI50 up to about 1.1 µM and inactive = higher.
# Columns and labels:
# Assay in all cases: DTP human tumour cell line panel, 48 h
# 786-0 = test system: 786-0
# A549 = test system: A549
# ACHN = test system: ACHN
# BT-549 = test system: BT-549
# CAKI-1 = test system: CAKI-1
# CCRF-CEM = test system: CCRF-CEM
# COLO 205 = test system: COLO 205
# DU-145 = test system: DU-145
# EKVX = test system: EKVX
# HCC 2998 = test system: HCC 2998
# HCT-116 = test system: HCT-116
# HCT-15 = test system: HCT-15
# HOP-62 = test system: HOP-62
# HT-29 = test system: HT-29
# IGROV-1 = test system: IGROV-1
# K562 = test system: K562
# KM12 = test system: KM12
# LOX IMVI = test system: LOX IMVI
# M14 = test system: M14
# MCF7 = test system: MCF7
# MDA-MB-231 = test system: MDA-MB-231
# MDA-MB-435 = test system: MDA-MB-435
# MDA-N = test system: MDA-N
# MOLT-4 = test system: MOLT-4
# NCI-H226 = test system: NCI-H226
# NCI-H23 = test system: NCI-H23
# NCI-H460 = test system: NCI-H460
# NCI-H522 = test system: NCI-H522
# NCI/ADR-RES = test system: NCI/ADR-RES
# OVCAR-3 = test system: OVCAR-3
# OVCAR-4 = test system: OVCAR-4
# OVCAR-5 = test system: OVCAR-5
# PC-3 = test system: PC-3
# RXF 393 = test system: RXF 393
# SF-268 = test system: SF-268
# SF-295 = test system: SF-295
# SF-539 = test system: SF-539
# SK-MEL-28 = test system: SK-MEL-28
# SK-MEL-2 = test system: SK-MEL-2
# SK-MEL-5 = test system: SK-MEL-5
# SK-OV-3 = test system: SK-OV-3
# SN12C = test system: SN12C
# SNB-19 = test system: SNB-19
# SNB-75 = test system: SNB-75
# SR = test system: SR
# SW-620 = test system: SW-620
# T47D = test system: T47D
# TK-10 = test system: TK-10
# U-251 = test system: U-251
# UACC-257 = test system: UACC-257
# UACC-62 = test system: UACC-62
# UO-31 = test system: UO-31
smiles,measurement,setting,value
CCC1(c2ccc(OC)c(OC)c2)CCN(S(=O)(=O)c2ccc(C)cc2)C1 (configuration not stated),GI50,786-0,> 100 µM (inactive)
same,GI50,A549,62.8 µM (inactive)
same,GI50,ACHN,> 100 µM (inactive)
same,GI50,BT-549,> 100 µM (inactive)
same,GI50,CAKI-1,> 100 µM (inactive)
same,GI50,CCRF-CEM,> 100 µM (inactive)
same,GI50,COLO 205,> 100 µM (inactive)
same,GI50,DU-145,> 100 µM (inactive)
same,GI50,EKVX,> 100 µM (inactive)
same,GI50,HCC 2998,> 100 µM (inactive)
same,GI50,HCT-116,57.4 µM (inactive)
same,GI50,HCT-15,> 100 µM
same,GI50,HOP-62,> 100 µM (inactive)
same,GI50,HT-29,> 100 µM (inactive)
same,GI50,IGROV-1,> 100 µM (inactive)
same,GI50,K562,> 10 µM (inactive)
same,GI50,KM12,33.3 µM (inactive)
same,GI50,LOX IMVI,> 100 µM (inactive)
same,GI50,M14,> 100 µM (inactive)
same,GI50,MCF7,> 100 µM (inactive)
same,GI50,MDA-MB-231,> 100 µM (inactive)
same,GI50,MDA-MB-435,82.6 µM (inactive)
same,GI50,MDA-N,> 100 µM (inactive)
same,GI50,MOLT-4,19.2 µM (inactive)
same,GI50,NCI-H226,> 100 µM (inactive)
same,GI50,NCI-H23,> 100 µM (inactive)
same,GI50,NCI-H460,64 µM (inactive)
same,GI50,NCI-H522,68.5 µM (inactive)
same,GI50,NCI/ADR-RES,72.8 µM (inactive)
same,GI50,OVCAR-3,> 100 µM (inactive)
same,GI50,OVCAR-4,39.4 µM (inactive)
same,GI50,OVCAR-5,> 100 µM (inactive)
same,GI50,PC-3,> 100 µM (inactive)
same,GI50,RXF 393,> 100 µM (inactive)
same,GI50,SF-268,> 100 µM (inactive)
same,GI50,SF-295,> 100 µM (inactive)
same,GI50,SF-539,> 100 µM (inactive)
same,GI50,SK-MEL-28,> 10 µM (inactive)
same,GI50,SK-MEL-2,> 100 µM (inactive)
same,GI50,SK-MEL-5,33.7 µM (inactive)
same,GI50,SK-OV-3,> 100 µM (inactive)
same,GI50,SN12C,> 100 µM (inactive)
same,GI50,SNB-19,> 100 µM (inactive)
same,GI50,SNB-75,> 100 µM (inactive)
same,GI50,SR,> 10 µM (inactive)
same,GI50,SW-620,> 100 µM (inactive)
same,GI50,T47D,> 100 µM (inactive)
same,GI50,TK-10,> 100 µM (inactive)
same,GI50,U-251,> 100 µM (inactive)
same,GI50,UACC-257,> 100 µM (inactive)
same,GI50,UACC-62,> 100 µM (inactive)
same,GI50,UO-31,> 100 µM (inactive)

# Source: ChEMBL document CHEMBL1201862, “PubChem BioAssay data set” (2004)
